Results from patent US9744244B2, “Amphipathic peptide” (The Queen's University of Belfast, priority 2012, dated 2017).
Where no end group is shown, it is not given here.

Tests used:
C57/BL6 mice = assay: Immune response on repeated administration (ELISA, Greiss test on serum); format: in vivo; settings: first week, compared with PEI only
[1] = Nanoparticle size and charge analysis (DLS, Laser Doppler Velocimetry, Malvern Zetasizer); format: physicochemical
Experimental: In order to obtain particle size and charge distributions the mean hydrodynamic particle size measurements RALA complexes were performed using Dynamic Light Scattering (DLS). Dynamic Light Scattering is based upon the principle that when particles are illuminated with a laser, due to Brownian motion there will be scattering of the light. The intensity of the scattered light fluctuates as a result of this Brownian motion caused by bombardment of the particles by solvent molecules. A correlation curve reflecting the decay rate is generated based on fluctuations of the scattered light where a slower correlation decay rate represents a slower moving particle. Based on the Stokes-Einstein equation larger particles move more slowly and, thus, the correlation function can be used to determine the size distribution of the particles. dynamic light scattering (DLS) was used.
Surface charge measurements of the RALA nanoparticles were determined by Laser Doppler Velocimetry. The zeta potential of the particles was measured using disposable foltable zeta cuvettes. […]
The nanoparticles were made up at an appropriate range of N:P ratios with at least using 2 μg of DNA in each sample. Nanoparticles were analysed using either and analysis was completed on either the Zetasizer-HS3000 (Malvern Instruments) or the Zetasizer-Nano instrument with DTS software (Malvern Instruments, UK). […]

ZR-75-1 cells = assay: Transfection of ZR-75-1 cells, GFP expression by flow cytometry; format: cell-based
Experimental: In order to test the RALA in vitro, small scale transfections were performed carried out. 5×10^4 cells were seeded onto each well of a 96 well plate and the cells incubated under with complete medium standard conditions for 48 hours. The medium was subsequently removed from the plates and 100 μl of transfection medium (Optimem Invitrogen, UK) was added to each well. Cells were incubated for 2 hours at 37° C. and 5% CO2 standard conditions. In the meanwhile complexes were made up using 1 μg of plasmid DNA with the RALA vector and added to the cells when the two hours had passed. 100 μl of the each N:P ratio were added to each well of the cells. Cells were then incubated for a further 4 hours under standard conditions and the medium with RPMI-1640 supplemented with +10% FCS. (FIG. 4, 31 (+Chloroquine), 32 (+Bafilomycin), 33 (+KALA NPs), 34 (+Lipofectamine), 35).
ZR-75-1 & PC-3 cells that were transfected with RALA/pEGFP-N1 complexes were trypsinised and washed twice with 2% formaldehyde in phosphate buffered saline. The expression of green fluorescent protein was measured by flow cytometry using FACS calibur system (BD Bioscience, UK). The data was analysed using the Flo-Jo software program and fluorescent intensity is reported at 4% gating. (FIG. 7b, 11, 31, 32, 33, 34, 35, 57 (+RAT/pEGFP-N1)).

Sequence: WEARLARALARALARHLARALARALRACEA [RALA]
- initial TNFα response (C57/BL6 mice): significantly lower initial response of TNFα than the PEI only treated animals

Sequence: WEARLARALARALARHLRACEA (22mer protein sequence (Table 2)) [Peptide 22mer, comparative peptide]
- ability to condense DNA into nanoparticles [1]: unable to condense DNA into nanoparticles
- ability to transfect cells (ZR-75-1 cells): unable to condense DNA into nanoparticles and transfect cells
